Test results from paper PMC9492777, “Reaction-based fluorogenic probes for detecting protein cysteine oxidation in living cells” (Nature Communications, 2022).

Target: EGFR (epidermal growth factor receptor) (Homo sapiens, UniProt P00533)
Test: labelling in transfected HeLa cells, immunoprecipitation, in-gel fluorescence
Assay type: cell-based
Conditions: covalent, at Cys797 sulfenic acid; 50 uM probe, 500 uM H2O2, 1 h, 37 °C

Sequence of EGFR (epidermal growth factor receptor) (P00533 25-1210): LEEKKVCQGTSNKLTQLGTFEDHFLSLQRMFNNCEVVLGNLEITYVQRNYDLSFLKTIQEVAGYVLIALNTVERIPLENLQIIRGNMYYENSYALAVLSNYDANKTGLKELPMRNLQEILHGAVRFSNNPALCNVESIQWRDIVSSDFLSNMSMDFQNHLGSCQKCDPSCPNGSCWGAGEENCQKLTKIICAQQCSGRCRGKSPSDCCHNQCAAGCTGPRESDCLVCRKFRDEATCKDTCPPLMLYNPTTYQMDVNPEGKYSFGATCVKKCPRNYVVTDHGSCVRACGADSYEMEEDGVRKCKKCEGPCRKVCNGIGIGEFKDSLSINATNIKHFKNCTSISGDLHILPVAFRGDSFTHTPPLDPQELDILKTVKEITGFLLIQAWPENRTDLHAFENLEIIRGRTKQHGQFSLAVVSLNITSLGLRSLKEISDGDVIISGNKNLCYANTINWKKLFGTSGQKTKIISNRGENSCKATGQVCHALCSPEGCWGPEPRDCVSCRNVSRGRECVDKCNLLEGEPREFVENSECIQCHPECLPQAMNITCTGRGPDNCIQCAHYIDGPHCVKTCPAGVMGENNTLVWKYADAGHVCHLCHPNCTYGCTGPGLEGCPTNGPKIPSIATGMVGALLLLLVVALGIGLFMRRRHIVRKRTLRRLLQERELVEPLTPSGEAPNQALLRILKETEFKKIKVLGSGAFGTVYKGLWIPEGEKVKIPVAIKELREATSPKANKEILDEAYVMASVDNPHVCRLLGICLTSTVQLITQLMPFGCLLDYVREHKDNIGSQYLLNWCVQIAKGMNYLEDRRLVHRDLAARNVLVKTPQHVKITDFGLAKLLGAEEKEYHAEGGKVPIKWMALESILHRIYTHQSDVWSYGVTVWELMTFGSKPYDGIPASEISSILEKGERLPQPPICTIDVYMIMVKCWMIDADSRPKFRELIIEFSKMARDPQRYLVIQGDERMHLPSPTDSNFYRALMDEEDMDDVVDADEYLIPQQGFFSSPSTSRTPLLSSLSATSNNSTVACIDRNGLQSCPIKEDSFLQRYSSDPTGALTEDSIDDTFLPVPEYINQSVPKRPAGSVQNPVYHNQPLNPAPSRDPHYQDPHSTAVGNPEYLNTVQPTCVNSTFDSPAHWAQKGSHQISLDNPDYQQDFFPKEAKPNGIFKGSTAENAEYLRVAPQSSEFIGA

Row | SMILES | labelling in transfected HeLa cells, immunoprecipitation, in-gel fluorescence
1 | Nc1c(F)cc2c3c(cccc13)C(=O)CS2(=O)=O [compound 7, CysOx1] | Wild-type EGFR exhibited detectable fluorescence signal from CysOx1 or CysOx2
2 | O=C1CS(=O)(=O)c2cc(F)c(N3CCC3)c3cccc1c23 [compound 8, CysOx2] | Wild-type EGFR exhibited detectable fluorescence signal from CysOx1 or CysOx2
